A value given as a limit tells only on which side of the number the result lay.

21 compounds from US20140249139A1, “Quinazoline Derivatives” (NOVARTIS AG, priority 2011, published 2014) can be followed below.

The target of assay [1] is T1, PI3K alpha (Homo sapiens, UniProt P42336).
T1 construct: for the p110-a subunit (with a deletion of the first 20 amino acids) are generated; His tag (C); made in house; host or cells: baculovirus BV1075; Tn5 (Trichoplusia ni) or TiniPro insect cells
Nature of the assay: Enzymatic PI3K alpha isoform inhibition (lipid kinase activity, Kinase-Glo). In kind it is biochemical. The note with it: enzymatic assay. The procedure:
(§1) The components of the assay are added per well as follows:
(§2) IC50 is determined by a four parameter curve fitting routine that comes along with “excel fit”.
(§3) Yet alternatively, for an ATP depletion assay, compounds of the formula I to be tested are dissolved in DMSO and directly distributed into a white 384-well plate at 0.5 μl per well. To start the reaction, 10 μl of 10 nM PI3 kinase and 5 μg/ml 1-alpha-phosphatidylinositol (PI) are added into each well followed by 10 μl of 2 μM ATP. The reaction is performed until approx 50% of the ATP is depleted, and then stopped by the addition of 20 μl of Kinase-Glo solution (Promega Corp., Madison, Wis., USA). The stopped reaction is incubated for 5 minutes and the remaining ATP is then detected via luminescence. IC50 values are then determined.
On the technique in general: Kinase-Glo reads ATP consumption through a luciferase reaction.

Assay [2] concerns the target T2, PI3K delta (Homo sapiens, UniProt O00329).
T2 construct: for the full-length p110-d subunit are generated and fused by overlapping PCR; His tag (C); made in house; host or cells: baculovirus BV1060; Tn5 (Trichoplusia ni) or TiniPro insect cells
The experiment in a line: Enzymatic PI3K delta isoform inhibition (lipid kinase activity, Kinase-Glo). In kind it is biochemical. Conditions: enzymatic assay. As for the experimental part:
as §1, §2, §3

T1 sequence (P42336 with tags, fused parts or gaps limits assumed, species assumed): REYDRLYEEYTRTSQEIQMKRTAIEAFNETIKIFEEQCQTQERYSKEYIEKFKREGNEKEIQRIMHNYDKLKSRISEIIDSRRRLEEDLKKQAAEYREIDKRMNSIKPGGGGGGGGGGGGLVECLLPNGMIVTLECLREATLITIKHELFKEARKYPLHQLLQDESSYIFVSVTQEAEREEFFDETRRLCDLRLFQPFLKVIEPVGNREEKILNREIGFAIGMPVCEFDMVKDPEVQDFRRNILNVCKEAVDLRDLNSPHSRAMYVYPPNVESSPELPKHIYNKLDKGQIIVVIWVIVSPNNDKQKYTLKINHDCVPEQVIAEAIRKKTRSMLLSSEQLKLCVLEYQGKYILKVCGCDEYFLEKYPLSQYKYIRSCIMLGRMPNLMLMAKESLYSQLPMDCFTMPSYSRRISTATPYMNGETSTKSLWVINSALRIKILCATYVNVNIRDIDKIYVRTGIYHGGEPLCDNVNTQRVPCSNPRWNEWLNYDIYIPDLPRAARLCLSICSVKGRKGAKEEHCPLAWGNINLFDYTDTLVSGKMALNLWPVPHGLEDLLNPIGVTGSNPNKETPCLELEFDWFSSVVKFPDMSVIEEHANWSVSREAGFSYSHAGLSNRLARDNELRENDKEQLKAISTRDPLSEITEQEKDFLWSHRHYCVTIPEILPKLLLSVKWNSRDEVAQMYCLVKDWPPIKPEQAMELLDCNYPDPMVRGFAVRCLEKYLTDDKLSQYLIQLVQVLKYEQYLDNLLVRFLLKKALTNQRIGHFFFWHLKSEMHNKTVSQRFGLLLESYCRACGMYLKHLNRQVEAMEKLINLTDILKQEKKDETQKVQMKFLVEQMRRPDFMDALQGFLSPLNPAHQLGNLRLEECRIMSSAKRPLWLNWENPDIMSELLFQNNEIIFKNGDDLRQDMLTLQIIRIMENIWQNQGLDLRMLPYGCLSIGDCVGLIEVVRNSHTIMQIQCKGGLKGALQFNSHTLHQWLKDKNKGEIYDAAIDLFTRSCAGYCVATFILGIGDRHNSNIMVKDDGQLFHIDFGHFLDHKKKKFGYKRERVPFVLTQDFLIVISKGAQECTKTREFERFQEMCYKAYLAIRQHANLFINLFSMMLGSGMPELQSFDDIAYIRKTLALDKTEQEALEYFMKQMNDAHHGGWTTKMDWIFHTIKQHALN
T2 sequence (O00329 with tags, fused parts or gaps limits assumed, species assumed): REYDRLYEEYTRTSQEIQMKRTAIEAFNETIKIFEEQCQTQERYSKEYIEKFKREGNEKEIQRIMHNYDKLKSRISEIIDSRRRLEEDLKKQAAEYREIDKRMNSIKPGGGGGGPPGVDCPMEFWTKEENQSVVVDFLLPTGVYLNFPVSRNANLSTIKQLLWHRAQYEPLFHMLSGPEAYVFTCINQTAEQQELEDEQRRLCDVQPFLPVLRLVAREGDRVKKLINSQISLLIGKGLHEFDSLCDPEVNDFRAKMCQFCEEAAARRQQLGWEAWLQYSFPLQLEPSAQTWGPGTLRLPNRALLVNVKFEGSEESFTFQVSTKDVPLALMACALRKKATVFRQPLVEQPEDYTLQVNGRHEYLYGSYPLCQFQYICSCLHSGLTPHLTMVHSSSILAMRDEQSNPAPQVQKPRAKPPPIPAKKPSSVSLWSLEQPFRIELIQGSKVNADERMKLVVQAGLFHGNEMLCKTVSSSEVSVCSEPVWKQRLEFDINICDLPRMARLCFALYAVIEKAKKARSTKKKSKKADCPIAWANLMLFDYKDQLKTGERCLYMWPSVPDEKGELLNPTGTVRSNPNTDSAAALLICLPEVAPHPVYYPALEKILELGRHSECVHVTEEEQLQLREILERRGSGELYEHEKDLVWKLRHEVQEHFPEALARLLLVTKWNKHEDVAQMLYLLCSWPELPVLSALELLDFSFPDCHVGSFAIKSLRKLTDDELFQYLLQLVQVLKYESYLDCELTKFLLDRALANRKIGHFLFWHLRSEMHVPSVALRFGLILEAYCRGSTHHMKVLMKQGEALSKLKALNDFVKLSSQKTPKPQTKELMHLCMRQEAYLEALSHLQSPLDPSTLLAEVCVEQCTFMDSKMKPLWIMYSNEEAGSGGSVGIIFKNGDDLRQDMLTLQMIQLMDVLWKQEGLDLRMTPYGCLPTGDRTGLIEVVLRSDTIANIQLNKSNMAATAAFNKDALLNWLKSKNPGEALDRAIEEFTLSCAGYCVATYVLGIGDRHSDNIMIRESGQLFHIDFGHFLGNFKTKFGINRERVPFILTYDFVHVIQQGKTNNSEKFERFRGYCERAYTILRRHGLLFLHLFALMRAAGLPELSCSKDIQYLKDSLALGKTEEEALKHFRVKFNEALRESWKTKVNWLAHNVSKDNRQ

In general, IC50 refers to the concentration at which inhibition is half-maximal. In the case of `COc1ccc(-c2ccc3ncnc(-c4cccc(C(=O)N5CCN(CC(F)(F)F)CC5)c4)c3c2)cn1` [Example 87, {3-[6-(6-Methoxy-pyridin-3-yl)-quinazolin-4-yl]-phenyl}-[4-(2,2,2-trifluoro-ethyl)-piperazin-1-yl]-methanone], the figures for the IC50 in assay [1] and in assay [2] were 126 nM and < 3 nM, respectively.
As for `COc1ccc(-c2ccc3ncnc(-c4cccc(C(=O)N5CCNC(C)(C)C5)c4)c3c2)cn1` [Example 88, (3,3-Dimethyl-piperazin-1-yl)-{3-[6-(6-methoxy-pyridin-3-yl)-quinazolin-4-yl]-phenyl}-methanone], the IC50 was 100 nM in assay [1] and 2.67 nM in assay [2].
In the case of `COc1ccc(-c2ccc3ncnc(-c4cccc(C(=O)N5CCN(C)C(C)(C)C5)c4)c3c2)cn1` [Example 89, {3-[6-(6-Methoxy-pyridin-3-yl)-quinazolin-4-yl]-phenyl}-(3,3,4-trimethyl-piperazin-1-yl)-methanone], the IC50 in assay [1] was 99 nM; in assay [2], 4 nM.
For the compound `COc1ccc(-c2ccc3ncnc(-c4cccc(C(=O)N5CC(C)NC(C)C5)c4)c3c2)cn1` (stereo not drawn) [Example 90, (3,5-Dimethyl-piperazin-1-yl)-{3-[6-(6-methoxy-pyridin-3-yl)-quinazolin-4-yl]-phenyl}-methanone], the IC50 in assay [1] amounted to 181 nM; in assay [2], 5.75 nM.
For `COc1ccc(-c2ccc3ncnc(-c4cccc(C(=O)N5CCCN(C)CC5)c4)c3c2)cn1` [Example 92, {3-[6-(6-Methoxy-pyridin-3-yl)-quinazolin-4-yl]-phenyl}-(4-methyl-[1,4]diazepan-1-yl)-methanone] the same measures were 196 nM and 3.75 nM.
For `COc1ccc(-c2ccc3ncnc(-c4cccc(C(=O)N5CCS(=O)(=O)CC5)c4)c3c2)cn1` [Example 93, (1,1-Dioxo-1lambda*6*-thiomorpholin-4-yl)-{3-[6-(6-methoxy-pyridin-3-yl)-quinazolin-4-yl]-phenyl}-methanone] the same measures were 120 nM and < 3 nM.
In the same order, the values of `COc1ccc(-c2ccc3ncnc(-c4cccc(C(=O)N5CCC(O)CC5)c4)c3c2)cn1` [Example 94, (4-Hydroxy-piperidin-1-yl)-{3-[6-(6-methoxy-pyridin-3-yl)-quinazolin-4-yl]-phenyl}-methanone] are 174 nM and 6 nM.
As to `COc1ccc(-c2ccc3ncnc(-c4cccc(C(=O)N5CCOC(C)(C)C5)c4)c3c2)cn1` [Example 95, (2,2-Dimethyl-morpholin-4-yl)-{3-[6-(6-methoxy-pyridin-3-yl)-quinazolin-4-yl]-phenyl}-methanone], the figures for the IC50 in assay [1] and in assay [2] were 281 nM and 9 nM, respectively.
In the same order, the values of `CCC(=O)N1CCN(C(=O)c2cccc(-c3ncnc4ccc(-c5cnc(OC)c(C#N)c5)cc34)c2)CC1` [Example 96, 2-Methoxy-5-{4-[3-(4-propionyl-piperazine-1-carbonyl)-phenyl]-quinazolin-6-yl}-nicotinonitrile] are 316 nM and 6 nM.
With `COc1ccc(-c2ccc3ncnc(-c4cccc(C(=O)N5CCNC[C@H]5C)c4)c3c2)cn1` [Example 97, {3-[6-(6-Methoxy-pyridin-3-yl)-quinazolin-4-yl]-phenyl}-((R)-2-methyl-piperazin-1-yl)-methanone], the IC50 in assay [1] is 463 nM; in assay [2], 23 nM.
For `COc1ccc(-c2ccc3ncnc(-c4cccc(C(=O)N5CCNC[C@@H]5C)c4)c3c2)cn1` [Example 98, {3-[6-(6-Methoxy-pyridin-3-yl)-quinazolin-4-yl]-phenyl}-((S)-2-methyl-piperazin-1-yl)-methanone], the IC50 in assay [1] was determined as 102 nM; in assay [2], 3.5 nM.
For `COc1ccc(-c2ccc3ncnc(-c4cccc(C(=O)N5CCN(C)C[C@@H]5C)c4)c3c2)cn1` [Example 99, ((S)-2,4-Dimethyl-piperazin-1-yl)-{3-[6-(6-methoxy-pyridin-3-yl)-quinazolin-4-yl]-phenyl}-methanone], the IC50 is 237 nM in assay [1] and 4.5 nM in assay [2].
In the same order, the values of `COc1ccc(-c2ccc3ncnc(-c4ccc(C)c(C(=O)N5CCN(C(C)=O)CC5)c4)c3c2)cn1` [Example 100, 1-(4-{5-[6-(6-Methoxy-pyridin-3-yl)-quinazolin-4-yl]-2-methyl-benzoyl}-piperazin-1-yl)-ethanone] are 188 nM and 5 nM.
In the same order, the values of `COc1ccc(-c2ccc3ncnc(-c4cc(C(=O)N5CCN(C(C)=O)CC5)cc(C(F)(F)F)c4)c3c2)cn1` [Example 101, 1-(4-{3-[6-(6-Methoxy-pyridin-3-yl)-quinazolin-4-yl]-5-trifluoromethyl-benzoyl}-piperazin-1-yl)-ethanone] are 1270 nM and 16 nM.
In the case of `COc1ncc(-c2ccc3ncnc(-c4ccc(C)c(C(=O)N5CCN(C(C)=O)CC5)c4)c3c2)cn1` [Example 102, 1-(4-{5-[6-(2-Methoxy-pyrimidin-5-yl)-quinazolin-4-yl]-2-methyl-benzoyl}-piperazin-1-yl)-ethanone], the IC50 amounted to 770 nM in assay [1] and 11 nM in assay [2].
For `COc1ncc(-c2ccc3ncnc(-c4cc(C(=O)N5CCN(C(C)=O)CC5)cc(C(F)(F)F)c4)c3c2)cc1C#N` [Example 103, 5-{4-[3-(4-Acetyl-piperazine-1-carbonyl)-5-trifluoromethyl-phenyl]-quinazolin-6-yl}-2-methoxy-nicotinonitrile] the same measures were 2120 nM and 8 nM.
Consider `COc1ncc(-c2ccc3ncnc(-c4cc(C(=O)N5CCN(C(C)=O)CC5)cc(C(F)(F)F)c4)c3c2)cn1` [Example 104, 1-(4-{3-[6-(2-Methoxy-pyrimidin-5-yl)-quinazolin-4-yl]-5-trifluoromethyl-benzoyl}-piperazin-1-yl)-ethanone], for which the IC50 turned out to be 3290 nM in assay [1] and 38 nM in assay [2].
With `COc1cc(C(=O)N2CCN(C(C)=O)CC2)cc(-c2ncnc3ccc(-c4cnc(OC)c(C#N)c4)cc23)c1` [Example 105, 5-{4-[3-(4-Acetyl-piperazine-1-carbonyl)-5-methoxy-phenyl]-quinazolin-6-yl}-2-methoxy-nicotinonitrile], the IC50 in assay [1] was found to be 720 nM; in assay [2], 7 nM.
In the case of `COc1cc(C(=O)N2CCN(C(C)=O)CC2)cc(-c2ncnc3ccc(-c4ccc(OC)nc4)cc23)c1` [Example 106, 1-(4-{3-Methoxy-5-[6-(6-methoxy-pyridin-3-yl)-quinazolin-4-yl]-benzoyl}-piperazin-1-yl)-ethanone], the IC50 in assay [1] amounted to 440 nM; in assay [2] it was 5 nM.
As for `COc1ccc(-c2ccc3ncnc(-c4cc(Cl)cc(C(=O)N5CCN(C(C)=O)CC5)c4)c3c2)cn1` [Example 107, 1-(4-{3-Chloro-5-[6-(6-methoxy-pyridin-3-yl)-quinazolin-4-yl]-benzoyl}-piperazin-1-yl)-ethanone], the values for the IC50 in assay [1] and in assay [2] were 716 nM and 5 nM, respectively.
As to `COc1ccc(-c2ccc3ncnc(-c4cc(C)cc(C(=O)N5CCN(C(C)=O)CC5)c4)c3c2)cn1` [Example 108, 1-(4-{3-[6-(6-Methoxy-pyridin-3-yl)-quinazolin-4-yl]-5-methyl-benzoyl}-piperazin-1-yl)-ethanone], the results for the IC50 in assay [1] and in assay [2] were 158 nM and 7 nM, respectively.
